This assay relates to MRSA. Description: CFU counts of MRSA plated on agar with antibiotic after sub-lethal NIMELS laser (Examples IX-XII). In kind it is cell-based, Staphylococcus aureus. The conditions noted are these: antibiotic at resistant MIC just below effectiveness level. An excerpt:
The following parameters illustrate the general bacterial methods according to the invention as applied to MRSA for the in vitro Experiments V and VIII-XII.
The null hypothesis is μ1−μ2=0 and μ1−μ3=0 where:
a) μ1 is sub-lethal dosimetry from the NIMEL laser system on MRSA as a control and;
The null hypothesis is μ1−μ2=0 and μ1−μ3=0 where: • a) μ1 is sub-lethal dosimetry from the NIMEL laser system on MRSA as a control and; • b)μ2 is the same sub-lethal dosimetry from the NIMEL laser system on MRSA with the addition of tetracycline at resistant MIC just below effectiveness level and; • c) μ3 is the same sub-lethal dosimetry from the NIMEL laser system on MRSA with the addition of rifampin at resistant MIC just below effectiveness level.
The null hypothesis is μ1−μ2=0 and μ1−μ3=0 where: a) μ1 is sub-lethal dosimetry from the NIMEL laser system on MRSA as a control and; b)μ2 is the same sub-lethal dosimetry from the NIMEL laser system on MRSA with the addition of methicillin at resistant MIC just below effectiveness level and; […]

With `COc1cccc(OC)c1C(=O)N[C@@H]1C(=O)N2[C@@H]1SC(C)(C)[C@@H]2C(=O)O` [Methicillin], the “effect of sub-lethal NIMELS irradiation on antibiotic action against MRSA colonies (words)” value is reported as “successful reversal of MRSA resistance”. The “effect of sub-lethal NIMELS irradiation on antibiotic action against MRSA colonies (words)” value (listed as methicillin) is on record as “being potentiated by the NIMELS effect”.
